# Reference: publication PMC7734281, “Functionalized Oxoindolin Hydrazine Carbothioamide Derivatives as Highly Potent Inhibitors of Nucleoside Triphosphate Diphosphohydrolases” (Frontiers in Pharmacology, 2020)
# Columns and labels:
# Type in all cases: biochemical
# [1] = target: T1, m-NTPDase1 (Mus musculus, UniProt P55772); test: m-NTPDase1 inhibition, malachite green assay; settings: for inhibition at 100 µM: compound 100 µM; for IC50: mean ± SEM of three independent experiments
# T1 construct: made in house; host or cells: COS-7 cells, transient transfection; crude protein extract after sonication
# T1 sequence (P55772 1-510): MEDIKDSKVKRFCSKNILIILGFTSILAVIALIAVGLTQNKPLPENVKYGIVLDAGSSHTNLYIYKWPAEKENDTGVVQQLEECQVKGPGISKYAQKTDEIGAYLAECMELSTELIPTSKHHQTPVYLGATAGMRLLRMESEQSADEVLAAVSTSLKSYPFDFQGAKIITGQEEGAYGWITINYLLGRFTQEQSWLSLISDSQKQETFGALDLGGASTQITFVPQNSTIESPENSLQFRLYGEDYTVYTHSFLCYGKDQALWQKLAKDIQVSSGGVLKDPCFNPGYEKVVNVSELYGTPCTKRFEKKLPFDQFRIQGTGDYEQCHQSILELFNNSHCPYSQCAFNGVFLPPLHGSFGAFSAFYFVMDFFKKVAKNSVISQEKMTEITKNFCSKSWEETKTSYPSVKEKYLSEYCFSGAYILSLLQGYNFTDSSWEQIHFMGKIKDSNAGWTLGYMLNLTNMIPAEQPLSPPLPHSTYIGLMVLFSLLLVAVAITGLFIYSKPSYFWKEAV
# Protocol: (§1) COS-7 cells were transfected with plasmids expressing human or mouse NTPDases1, -2, -3, and -8 as previously described ([Levesque et al., 2007]; [Lecka et al., 2014]) Briefly, the confluent cells were transferred to Dulbecco’s Modified Eagle’s Medium containing no fetal bovine serum. Then, these cells were incubated with plasmid DNA (6 µg) and Lipofectamine reagent (24 µl) at 37°C. After 5 h, transfection was terminated with the addition of an equal volume of DMEM/F-12 (supplemented with 20% FBS) and cells were collected by harvesting after 40–72 h.
# (§2) To prepare protein extracts, transfected COS-7 cells were washed three times with tris-saline buffer while temperature was maintained at 4°C. Then cells were scraped and resuspended in harvesting buffer containing 95 mM NaCl, 45 mM tris and 0.1 mM phenylmethylsulfonyl fluoride (pH 7.5). Cells were again washed twice by centrifugation for 5 min at 300 × g at 4°C and then resuspended in harvesting buffer (supplemented with 10 μg ml aprotinin). Following sonication, cellular debris was isolated by 10 min centrifugation at 300 g at 4°C. Subsequently, supernatant was removed very carefully and protein concentration was determined by using Bradford microplate assay while using the bovine serum albumin as a standard ([Bradford, 1976]).
# (§3) The inhibitory effects of synthesized compounds on h-NTPDase1, -2, -3, and -8 were determined as described previously, although with slight modifications ([Martín-Satué et al., 2009]). Assay was conducted in a reaction medium containing 50 mM tris-HCl and 5 mM CaCl2 (pH 7.4). All the test compounds were dissolved in dimethyl sulfoxide (DMSO, 10%) and initially screened at a concentration of 100 µM. A reaction mixture containing 55 µl of assay buffer, 10 µl of test compound solution and 10 µl of h-NTPDase1 (58 ng/well) or h-NTPDase2 (79 ng/well) or h-NTPDase3 (163 ng/well) or h-NTPDase8 (66 ng/well) was incubated at 37°C for 10 min. Following the incubation, a 10 µl solution of adenosine triphosphate (ATP, 100 µm) was added as substrate and reaction mixture was again incubated for 15 min at 37°C. The reaction was stopped by adding malachite green reagent (15 µl) and placed at room temperature for 4 to 6 min. Finally, absorbance was measured at 630 nm by using Omega FLUOstar microplate reader (BMG Labtech, Ortenberg, Germany) and % inhibitions were calculated. For compounds showing more than 50% inhibition of any isozyme, dose response curves were generated and their IC50 values were determined. Three separate enzyme inhibition assays were carried out in triplicate and dose-response curve were generated by using PRISM 5.0 (GraphPad, San Diego, United States).
# Same procedure was adopted to determine the inhibitory effects of compounds on mouse NTPDases (m-NTPDases). However, the amount of protein used was as follows: m-NTPDase1 (82 ng/well), m-NTPDase2 (57 ng/well), m-NTPDase3 (110 ng/well) and m-NTPDase8 (79 ng/well)
# [2] = target: T2, h-NTPDase2 (Homo sapiens, UniProt Q9Y5L3); test: h-NTPDase2 inhibition, malachite green assay; settings: for IC50: ATP 100 µM substrate, mean ± SEM of three independent experiments; for inhibition at 100 µM: compound 100 µM
# T2 construct: made in house; host or cells: COS-7 cells, transient transfection; crude protein extract after sonication
# T2 sequence (Q9Y5L3 1-495): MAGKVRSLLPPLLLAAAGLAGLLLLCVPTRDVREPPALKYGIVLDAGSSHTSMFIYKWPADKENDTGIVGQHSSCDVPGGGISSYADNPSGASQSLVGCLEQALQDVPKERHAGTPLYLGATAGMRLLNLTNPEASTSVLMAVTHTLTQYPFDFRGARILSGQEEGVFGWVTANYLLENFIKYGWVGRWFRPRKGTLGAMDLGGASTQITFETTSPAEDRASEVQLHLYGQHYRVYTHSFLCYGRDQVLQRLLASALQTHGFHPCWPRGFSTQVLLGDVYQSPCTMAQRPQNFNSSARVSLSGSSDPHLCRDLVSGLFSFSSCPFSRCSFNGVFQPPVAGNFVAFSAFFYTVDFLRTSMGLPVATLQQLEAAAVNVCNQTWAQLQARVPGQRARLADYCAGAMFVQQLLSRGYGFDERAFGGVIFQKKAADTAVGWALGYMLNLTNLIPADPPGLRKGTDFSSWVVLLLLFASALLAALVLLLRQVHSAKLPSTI
# Protocol: as §1, §2, §3
# [3] = target: T3, h-NTPDase1 (Homo sapiens, UniProt P49961); test: h-NTPDase1 inhibition, malachite green assay; settings: for inhibition at 100 µM / Ki / IC50: human NTPDase1; for inhibition at 100 µM: compound 100 µM; for IC50: ATP 100 µM substrate, mean ± SEM of three independent experiments
# T3 construct: made in house; host or cells: COS-7 cells, transient transfection; crude protein extract after sonication
# T3 sequence (P49961 1-510): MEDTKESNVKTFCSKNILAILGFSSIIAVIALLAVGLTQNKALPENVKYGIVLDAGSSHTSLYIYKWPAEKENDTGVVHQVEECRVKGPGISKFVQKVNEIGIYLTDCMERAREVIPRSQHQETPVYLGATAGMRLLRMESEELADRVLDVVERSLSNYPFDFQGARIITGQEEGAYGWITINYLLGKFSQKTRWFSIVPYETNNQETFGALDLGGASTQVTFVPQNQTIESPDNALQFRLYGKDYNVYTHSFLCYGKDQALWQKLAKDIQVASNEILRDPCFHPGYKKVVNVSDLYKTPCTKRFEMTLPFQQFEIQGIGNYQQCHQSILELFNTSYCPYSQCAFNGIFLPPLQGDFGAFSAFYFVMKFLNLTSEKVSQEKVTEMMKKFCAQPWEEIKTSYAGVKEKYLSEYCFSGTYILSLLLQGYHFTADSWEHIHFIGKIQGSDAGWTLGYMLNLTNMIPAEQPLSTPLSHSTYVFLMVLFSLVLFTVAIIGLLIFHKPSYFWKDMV
# Protocol: as §1, §2, §3
Compound,inhibition at 100 µM [1] [%],Ki [2] [µM],IC50 [2] [µM],inhibition at 100 µM [3] [%],Ki [1] [µM],IC50 [1] [µM],inhibition at 100 µM [2] [%],Ki [3] [µM],IC50 [3] [µM],Mode of inhibition of h-NTPDase1 ([3]; Lineweaver-Burk plot)
"COc1ccc(NC(=S)NNC2=c3ccccc3=NC2=O)cc1 [8k, (Z)-N-(4-methoxyphenyl)-2-(2-oxoindolin-3-ylidene)hydrazine-1-carbothioamide]",42,0.07,0.16 ± 0.01,44,,,,,,
"O=C1Nc2ccccc2/C1=N/NC(=S)Nc1c(F)cccc1F [8l, (Z)-N-(2,6-difluorophenyl)-2-(2-oxoindolin-3-ylidene)hydrazine-1-carbothioamide]",,,,,0.03,3.22 ± 0.19,< 50,0.04,0.3 ± 0.03,
"O=C1Nc2ccccc2/C1=N/NC(=S)Nc1ccc(F)cc1 [8d, (Z)-N-(4-fluorophenyl)-2-(2-oxoindolin-3-ylidene)hydrazine-1-carbothioamide]",41,,,49.1,,,48,,,
"O=C1Nc2ccccc2/C1=N/NC(=S)NCc1ccccc1 [8f, (Z)-N-benzyl-2-(2-oxoindolin-3-ylidene)hydrazine-1-carbothioamide]",,,,,0.04,4.14 ± 0.13,< 50,0.03,0.24 ± 0.01,
"O=C1Nc2ccccc2/C1=N/NC(=S)Nc1ccc(Cl)cc1 [8c, (Z)-N-(4-chlorophenyl)-2-(2-oxoindolin-3-ylidene)hydrazine-1-carbothioamide]",28,,,,,,46,0.03,0.23 ± 0.01,
"O=C1Nc2ccccc2/C1=N/NC(=S)Nc1ccc([N+](=O)[O-])cc1 [8b, (Z)-N-(4-nitrophenyl)-2-(2-oxoindolin-3-ylidene)hydrazine-1-carbothioamide]",14,,,,,,,0.04,0.29 ± 0.02,
"Cc1ccc(NC(=S)N/N=C2\C(=O)Nc3ccccc32)cc1 [8h, (Z)-2-(2-oxoindolin-3-ylidene)-N-(p-tolyl)hydrazine-1-carbothioamide]",29,,,49,,,17,,,
"CCNC(=S)N/N=C1\C(=O)Nc2ccccc21 [8m, (Z)-N-ethyl-2-(2-oxoindolin-3-ylidene)hydrazine-1-carbothioamide]",,,,,0.04,3.6 ± 0.02,42,0.38,2.6 ± 0.02,
"COc1cccc(NC(=S)N/N=C2\C(=O)Nc3ccccc32)c1 [8e, (Z)-N-(3-methoxyphenyl)-2-(2-oxoindolin-3-ylidene)hydrazine-1-carbothioamide]",,,,,0.006,0.6 ± 0.03,< 50,0.15,0.15 ± 0.009,non-competitive
"Cc1ccc(C(=O)Nc2ccc(S(=O)(=O)O)c3cc(S(=O)(=O)O)cc(S(=O)(=O)O)c23)cc1NC(=O)c1cccc(NC(=O)Nc2cccc(C(=O)Nc3cc(C(=O)Nc4ccc(S(=O)(=O)O)c5cc(S(=O)(=O)O)cc(S(=O)(=O)O)c45)ccc3C)c2)c1 [Suramin, reference compound]",,9.92,24.1 ± 3.01,,,> 100,,2.33,16.1 ± 1.02,
"O=C1Nc2ccccc2/C1=N/NC(=S)Nc1ccccc1 [8a, (Z)-2-(2-oxoindolin-3-ylidene)-N-phenylhydrazine-1-carbothioamide]",38,,,45,,,24,,,
"O=C1Nc2ccccc2/C1=N/NC(=S)Nc1cccc(Cl)c1 [8g, (Z)-N-(3-chlorophenyl)-2-(2-oxoindolin-3-ylidene)hydrazine-1-carbothioamide]",48,,,28,,,29,,,
"Cc1cccc(C)c1NC(=S)N/N=C1\C(=O)Nc2ccccc21 [8i, (Z)-N-(2,6-dimethylphenyl)-2-(2-oxoindolin-3-ylidene)hydrazine-1-carbothioamide]",20,0.17,0.41 ± 0.03,,,,,0.24,1.63 ± 0.15,
"COc1ccc(OC)c(NC(=S)N/N=C2\C(=O)Nc3ccccc32)c1 [8j, (Z)-N-(2,5-dimethoxyphenyl)-2-(2-oxoindolin-3-ylidene)hydrazine-1-carbothioamide]",24,0.04,0.11 ± 0.08,,,,,0.02,0.15 ± 0.01,
